Test results reported in US20220153732A1, “PROTEIN SECRETION INHIBITORS” (KEZAR LIFE SCIENCES, priority 2019, published 2022).

How the values were obtained:
Type in all cases: cell-based
[1] = system: human multiple myeloma cell line U266B1; assay: U266 Cell Viability Assay; settings: U-266, 48 hr, U266B1 cells, Celltiter-Glo, read-out: 48 hr U266 Viability Celltiter-Glo: Mean EC50
Method in brief: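 Viability measured by CellTiter-Glo luciferase signal after 48 h compound exposure (37 °C, 5% CO2) of U266B1 cells in 384-well format. Where stereochemistry is not shown, data refer to the stereoisomer mixture.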

[2] = system: PD1-ss+10aa/Gaussia Luciferase; assay: Dox-Induced PD1-ss-Gluc Assay; settings: 24 hr doxycycline induction, 293FRT/TO cells, Gaussia luciferase signal; read-out: 24 hr Dox Inducible PD1ssGluc 293FRT/TO: Mean IC50
Method in brief: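 Compounds, diluted in DMSO/media with doxycycline, were added to cells plated a day earlier and kept at 37° C under 5% CO2. The cells stably express a Gaussia luciferase construct fused to PD1-ss+10aa, induced via the T-REx system. Unassigned stereochemistry means mixture data.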

[3] = system: human multiple myeloma cell line NCI-H929; assay: H929 Cell Viability Assay; settings: 48 hr, NCI-H929 cells, Celltiter-Glo, read-out: 48 hr H929 Viability Celltiter-Glo: Mean EC50
Experimental: Plates were incubated at 37° C., 5% CO2 for 48 hours. After 48 hours, Celltiter-Glo® (Promega) was added to each well and luciferase signal was quantified using Tecan Infinite M1000 Pro for cell viability determination.
For chemical structures that include one or more stereoisomers, but are illustrated without indicating stereochemistry, the assay data refers to a mixture of stereoisomers.

[4] = system: HER3-ss+4aa/Gaussia Luciferase; assay: Dox-Induced Her3-ss-Gluc Assay; settings: 24 hr doxycycline induction, 293FRT/TO cells, Gaussia luciferase signal; read-out: 24 hr Dox Inducible Her3(ss + 4)Gluc 293FRT/TO: Mean IC50
Method in brief: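 Compounds, diluted in DMSO/media containing doxycycline, were incubated at 37° C., 5% CO2 with cells seeded one day earlier. The cells stably express HER3-ss+4aa/Gaussia luciferase under T-REx control. Where no stereochemistry is shown, data refer to the mixture of stereoisomers.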

[5] = system: IL-2-FL/Gaussia Luciferase; assay: Dox Induced IL2-FL-Gluc Assay; settings: 24 hr doxycycline induction, 293FRT/TO cells, Gaussia luciferase signal; read-out: 24 hr Dox Inducible IL2FLGIuc 293FRT/TO: Mean IC50
Method in brief: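 Compounds were added together with doxycycline in DMSO/media and incubated at 37° C., 5% CO2. The cells were a stably selected line carrying IL-2-FL/Gaussia luciferase under T-REx inducible control. Structures drawn without stereochemistry were tested as stereoisomer mixtures.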

[6] = system: TNFα-FL/Gaussia Luciferase; assay: Dox Induced TNFα-FL-Gluc Assay; settings: 24 hr doxycycline induction, 293FRT/TO cells, Gaussia luciferase signal; read-out: 24 hr Dox Inducible TNFaFLGluc 293FRT/TO: Mean IC50
Method in brief: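 Compounds were added in doxycycline-containing DMSO/media to cells plated the previous day and incubated at 37° C under 5% CO2. These cells stably express a TNFα-FL/Gaussia luciferase cDNA whose expression is under T-REx (Dox-inducible) control, selected with Hygromycin and Blasticidin.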

Row | Structure (SMILES) | EC50 [1] | IC50 [2] | EC50 [3] | IC50 [4] | IC50 [5] | IC50 [6]
1 | O=C(Nc1nc2cccnc2s1)c1cccn1Cc1ccncc1 [Compound A121] | > 25 µM | > 25 µM | > 25 µM | > 25 µM | > 25 µM | > 25 µM
2 | CC(C)OC(C)(C)c1csc(NC(=O)c2ccn(Cc3ccncc3)c2)n1 [Compound A122, N-(4-(2-isopropoxypropan-2-yl)thiazol-2-yl)-1-(pyridin-4-ylmethyl)-1H-pyrrole-3-carboxamide] | > 25 µM | > 25 µM | > 25 µM | > 25 µM | > 25 µM | > 25 µM
3 | CC(C)OC1(c2csc(NC(=O)c3cccn3Cc3ccncc3)n2)CC1 [Compound A123] | > 25 µM | > 25 µM | > 25 µM | > 25 µM | > 25 µM | > 25 µM
4 | CC(C)OC(C)(C)c1csc(NC(=O)c2cccn2Cc2ccc(=O)n(C)c2)n1 [Compound A124, N-(4-(2-isopropoxypropan-2-yl)thiazol-2-yl)-1-((1-methyl-6-oxo-1,6-dihydropyridin-3-yl)methyl)-1H-pyrrole-2-carboxamide] | > 25 µM | > 25 µM | > 25 µM | > 25 µM | > 25 µM | > 25 µM
5 | COc1cc(Cn2cccc2C(=O)Nc2nc(C(C)(C)OC(C)C)cs2)ccn1 [Compound A125, N-(4-(2-isopropoxypropan-2-yl)thiazol-2-yl)-1-((2-methoxypyridin-4-yl)methyl)-1H-pyrrole-2-carboxamide] | > 25 µM | > 25 µM | > 25 µM | > 25 µM | > 25 µM | > 25 µM
6 | CC(C)OC(C)(C)c1csc(NC(=O)c2cccn2Cc2ccn(C)c(=O)c2)n1 [Compound A127, N-(4-(2-isopropoxypropan-2-yl)thiazol-2-yl)-1-((1-methyl-2-oxo-1,2-dihydropyridin-4-yl)methyl)-1H-pyrrole-2-carboxamide] | > 25 µM | > 25 µM | > 25 µM | > 25 µM | > 25 µM | > 25 µM
7 | CC(=O)N1CCC(Cn2cccc2C(=O)Nc2nc(C(C)(C)OC(C)C)cs2)CC1 [Compound A128, 1-((1-acetylpiperidin-4-yl)methyl)-N-(4-(2-isopropoxypropan-2-yl)thiazol-2-yl)-1H-pyrrole-2-carboxamide] | > 25 µM | > 25 µM | > 25 µM | > 25 µM | > 25 µM | > 25 µM
8 | CC(C)OC(C)(C)c1csc(NC(=O)c2cccn2CC2CCN(C)CC2)n1 [Compound A129, N-(4-(2-isopropoxypropan-2-yl)thiazol-2-yl)-1-((1-methylpiperidin-4-yl)methyl)-1H-pyrrole-2-carboxamide] | > 25 µM | > 25 µM | > 25 µM | > 25 µM | > 25 µM | > 25 µM
9 | CCc1nc(NC(=O)c2cccn2Cc2cccnc2)sc1C [Compound A131, N-(4-ethyl-5-methylthiazol-2-yl)-1-(pyridin-3-ylmethyl)-1H-pyrrole-2-carboxamide] | > 25 µM | > 25 µM | > 25 µM | > 25 µM | > 25 µM | > 25 µM
10 | O=C(Nc1nc(C#Cc2ccccc2)cs1)c1cccn1Cc1ccncc1 [Compound A132] | 9.34 µM | 0.15 µM | 8.85 µM | 0.417 µM | 0.744 µM | 1.21 µM
11 | COc1ccccc1C#Cc1csc(NC(=O)c2cccn2Cc2ccncc2)n1 [Compound A141] | 13.1 µM | 0.277 µM | 7.72 µM | 0.651 µM | 1.58 µM | 1.82 µM
12 | COc1cccc(C#Cc2csc(NC(=O)c3cccn3Cc3ccncc3)n2)c1 [Compound A142] | > 25 µM | 0.241 µM | > 25 µM | 0.565 µM | 1.05 µM | 5.41 µM
